Assay results: US20260217708A1, “FUSED BENZAZEPINE DERIVATIVES FOR USE IN THE TREATMENT OF CANCER AND EPILEPSY” (UCB BIOPHARMA SRL, priority 2023, published 2026)

What was measured:
[1] = biological target: T1, system Xc^− (Homo sapiens, UniProt Q9UPY5); experiment: Cystine-induced glutamate release assay; type: cell-based; set-up: endogenous in cells; host or cells: H4 cells; conditions: H4 cells, sodium-free HEPES buffer, 50 μM L-Cystine, 2 hours, Amplex Red glutamate readout; read-out: pIC50 Cystine-induced glutamate release assay (converted)
T1 sequence (Q9UPY5 1-501): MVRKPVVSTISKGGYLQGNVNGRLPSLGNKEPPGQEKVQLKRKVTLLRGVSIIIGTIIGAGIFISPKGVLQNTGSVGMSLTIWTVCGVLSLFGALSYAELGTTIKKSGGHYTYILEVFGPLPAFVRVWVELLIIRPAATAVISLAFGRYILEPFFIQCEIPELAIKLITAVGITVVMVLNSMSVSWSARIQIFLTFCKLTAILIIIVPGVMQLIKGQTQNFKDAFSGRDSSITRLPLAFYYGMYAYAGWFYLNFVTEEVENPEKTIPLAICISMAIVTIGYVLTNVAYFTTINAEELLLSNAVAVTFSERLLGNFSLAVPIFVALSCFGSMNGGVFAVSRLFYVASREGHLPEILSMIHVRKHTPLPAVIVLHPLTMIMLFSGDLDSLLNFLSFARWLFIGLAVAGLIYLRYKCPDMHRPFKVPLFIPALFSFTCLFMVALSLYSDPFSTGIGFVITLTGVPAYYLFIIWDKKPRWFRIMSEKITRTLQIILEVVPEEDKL
T1 sequence (P08195 1-529 partner): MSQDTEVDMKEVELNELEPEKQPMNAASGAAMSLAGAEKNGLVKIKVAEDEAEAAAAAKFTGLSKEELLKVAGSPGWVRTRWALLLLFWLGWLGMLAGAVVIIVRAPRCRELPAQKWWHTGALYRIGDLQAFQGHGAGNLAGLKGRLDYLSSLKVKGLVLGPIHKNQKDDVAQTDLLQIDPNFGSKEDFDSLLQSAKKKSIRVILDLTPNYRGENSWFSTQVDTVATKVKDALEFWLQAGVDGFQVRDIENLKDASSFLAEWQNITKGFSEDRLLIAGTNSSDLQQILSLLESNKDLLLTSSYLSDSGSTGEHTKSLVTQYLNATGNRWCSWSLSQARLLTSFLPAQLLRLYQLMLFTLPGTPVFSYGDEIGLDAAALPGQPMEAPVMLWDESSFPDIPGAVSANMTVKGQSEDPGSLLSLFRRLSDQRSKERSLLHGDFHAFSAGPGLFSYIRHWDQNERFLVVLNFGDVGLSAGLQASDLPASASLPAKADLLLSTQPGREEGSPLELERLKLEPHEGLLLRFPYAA
Outline: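 IC50 (reported as pIC50) normalized to DMSO 1% and Erastin 50 μM controls, from Amplex Red fluorescence of glutamate exported into supernatant. H4 cells were washed into sodium-free buffer to exclude EAAT transport, then given compound with 50 μM L-cystine for 2 h in the incubator.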

[2] = biological target: T1, system Xc^−; experiment: [^14C]L-Cystine uptake assay; type: cell-based; set-up: endogenous in cells; host or cells: H4 cells; conditions: H4 cells, sodium-free HEPES buffer, 0.5 μM L-[14C]Cystine and 4.5 μM L-Cystine, 1 hour at 37° C.; read-out: pIC50 [^14C] L-Cystine uptake assay (converted)
Outline: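 Compound effect is given as pIC50, taken between controls of 1% DMSO and 50 μM Erastin. Human H4 cells were pretreated 15 min with compound in sodium-free buffer, then took up 0.5 μM [14C]cystine with 4.5 μM cold cystine for 1 hour at 37° C, read by scintillation proximity counting.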

| IC50 [1] | IC50 [2] | SMILES |
| --- | --- | --- |
| 39.8 to 100 nM | < 15.8 nM | Cc1cc2c(c(F)n1)-c1cccnc1C(C)C(=O)N2CC(=O)Nc1ccc(C(F)F)cc1 (stereo not shown) [#132, N-[4-(difluoromethyl)phenyl]-2-(3-fluoro-5,10-dimethyl-9-oxo-4,8,12-triazatricyclo[9.4.0.0^2,7]pentadeca-1(11),2(7),3,5,12,14-hexaen-8-yl)acetamide] |
| 15.8 to 39.8 nM | < 15.8 nM | Cc1cc2c(c(C)n1)-c1cc(F)ccc1CC(=O)N2CC(=O)Nc1ccc(C(F)(F)F)cc1 [#63, 2-(10-fluoro-1,3-dimeth-yl-6-oxo-7H-pyrido[4,3-d][3]benzazepin-5-yl)-N-[4-(trifluoromethyl)-phenyl]acetamide] |
| 100 to 501 nM | 15.8 to 39.8 nM | Cc1cc2c(cc1C)N(CC(=O)Nc1ccc(Cl)c(F)c1)C(=O)Cc1ccncc1-2 [#2, N-(4-chloro-3-fluoro-phenyl)-2-(9,10-dimethyl-6-oxo-5H-pyrido[4,3-d][1]benzazepin-7-yl)acetamide] |
| < 15.8 nM | < 15.8 nM | Cc1cc2c(c(F)n1)-c1cccnc1[C@@H](C)C(=O)N2CC(=O)Nc1ccc(C2(F)CC2)cc1 [#246, N-[4-(1-fluorocyclopropyl)phenyl]-2-[(10R)-3-fluoro-5,10-dimethyl-9-oxo-4,8,12-triazatricyclo[9.4.0.0^2,7]pentadeca-1(11),2(7),3,5,12,14-hexaen-8-yl]acetamide] |

The remaining lines, values behind:

| SMILES | IC50 [1] | IC50 [2] |
| --- | --- | --- |
| COc1cc2c(c(F)n1)-c1ncccc1C(C)C(=O)N2CC(=O)Nc1ccc(Cl)c(F)c1 (single isomer, unassigned) [#413, N-(4-chloro-3-fluoro-phenyl)-2-[15-fluoro-13-methoxy-8-methyl-9-oxo-3,10,14-triazatricyclo[9.4.0.0^2,7]pentadeca-1(11),2,4,6,12,14-hexaen-10-yl]acetamide] | 39.8 to 100 nM | 15.8 to 39.8 nM |
| Cc1cc2c(cc1C)N(CC(=O)Nc1ccc(Cl)c(F)c1)C(=O)Cc1ncccc1-2 [#3, N-(4-chloro-3-fluoro-phenyl)-2-(9,10-dimethyl-6-oxo-5-H-pyrido[2,3-d][1]benzazepin-7-yl)acetamide] | 100 to 501 nM | 39.8 to 100 nM |
| CC1C(=O)N(CC(=O)Nc2ccc(C(F)F)cc2)c2cc(OC(F)F)nc(Cl)c2-c2cccnc21 (single isomer, unassigned) [#416, 2-[3-chloro-5-(difluoromethoxy)-10-methyl-9-oxo-4,8,12-triazatricyclo[9.4.0.0^2,7]pentadeca-1(15),2,4,6,11,13-hexaen-8-yl]-N-[4-(difluoromethyl)phenyl]acetamide] | 15.8 to 39.8 nM | < 15.8 nM |
| CC1C(=O)N(CC(=O)Nc2ccc(C(F)(F)F)nc2)c2cc(Cl)cc(F)c2-c2cccnc21 (single isomer, unassigned) [#331, 2-[9-chloro-11-fluoro-5-methyl-6-oxo-5H-pyrido[2,3-d][1]benzazepin-7-yl]-N-[6-(trifluoromethyl)-3-pyridyl]acetamide] | 39.8 to 100 nM | 15.8 to 39.8 nM |
| CC1C(=O)N(CC(=O)Nc2ccc(Cl)c(F)c2)c2ccn(C(F)F)c(=O)c2-c2cccnc21 (stereo not shown) [#366, N-(4-chloro-3-fluoro-phenyl)-2-[4-(difluoromethyl)-10-methyl-3,9-dioxo-4,8,12-triazatricyclo[9.4.0.0^2,7]pentadeca-1(15),2(7),5,11,13-pentaen-8-yl]acetamide] | 39.8 to 100 nM | 39.8 to 100 nM |
| Cc1cc2c(c(Cl)n1)-c1ccnnc1C(C)C(=O)N2CC(=O)Nc1ccc(Cl)c(F)c1 (single isomer, unassigned) [#258, 2-[3-chloro-5,10-dimethyl-9-oxo-4,8,12,13-tetrazatricyclo[9.4.0.0^2,7]pentadeca-1(15),2,4,6,11,13-hexaen-8-yl]-N-(4-chloro-3-fluoro-phenyl)acetamide] | < 15.8 nM | < 15.8 nM |
| CC1C(=O)N(CC(=O)Nc2ccc(C(F)F)cc2)c2cc(C3CC3)c(=O)n(C)c2-c2ccccc21 (stereo not shown) [#322, 2-(3-cyclopropyl-1,7-dimethyl-2,6-dioxo-7H-pyrido[3,2-d][3]benzazepin-5-yl)-N-[4-(difluoromethyl)phenyl]acetamide] | 15.8 to 39.8 nM | 39.8 to 100 nM |
